The source made the active and inactive calls. The rule behind the calls is not given here.
Assays:
MCF7 [1] = test: Cytotoxicity against human MCF7 cells assessed as decrease in cell viability after 5 days by celltiterGlo assay; type: functional, cell-based; details: MCF7, 120 h
MCF7 [2] = test: Decrease in estrogen receptor alpha level in human MCF7 cells 2 to 10 uM after 4 hrs by in-cell western assay; type: functional; details: MCF7, 4 h
MCF7 [3] = test: Decrease in estrogen receptor alpha level in human MCF7 cells after 4 hrs by in-cell western assay; type: functional, cell-based; details: MCF7, 4 h
MCF7 [4] = test: Decrease in estrogen receptor alpha level in human MCF7 cells after 4 hrs by in-cell western assay relative to fulvestrant; type: functional; details: MCF7, 4 h
MCF7 [5] = test: Antitumor activity against human MCF7 cells xenografted in tamoxifen-resistant nu/nu mouse model implanted with 17beta-estradiol pellets assessed as tumor regression at 30 mg/kg qd for 4 weeks; type: functional, organism-based
Rattus norvegicus = test: Decrease in uterine wet weight of CD-IGS rat at 1 mg/kg, po qd followed 15 mins later administration of 0.1 mg/kg, po 17alpha-ethynylestradiol for 3 consecutive days; type: functional
[6] = AUC in CD-1 mouse at 10 mg/kg, po; type: ADME, organism-based; details: in vivo
[7] = Fraction unbound in CD-1 mouse plasma by equilibrium dialysis; type: ADME, cell-free

Structure (SMILES)	IC50 (MCF7 [1]) [nM]	Emax (MCF7 [2]) [%]	EC50 (MCF7 [3]) [nM]	Emax (MCF7 [4]) [%]	Activity (MCF7 [5])	inhibition (INH) (Rattus norvegicus) [%]	AUC [6] [ng·h/mL]	fraction unbound [7]
CC/C(=C(/c1ccc(/C=C/C(=O)O)cc1)c1cnc2[nH]ncc2c1)c1ccccc1	302	93	116	–	–	–	–	–
CC/C(=C(/c1ccc(/C=C/C(=O)O)cc1)c1ccc2[nH]nc(C)c2c1)c1ccccc1	> 1000	86	353	–	–	–	–	–
O=C(O)/C=C/c1ccc(/C(=C(\c2ncc(C(F)(F)F)cc2Cl)C2CCC2)c2ccc3[nH]nc(F)c3c2)cc1	4.4	–	1.3	94	Active	77	24300	0.014
CS(=O)(=O)c1cc(Cl)ccc1/C(=C(\c1ccc(/C=C/C(=O)O)cc1)c1ccc2[nH]nc(F)c2c1)C1CCC1	0.3	–	0.3	91	–	94	200	0.035
CC/C(=C(/c1ccc(/C=C/C(=O)O)cc1)c1cc2cn[nH]c2cc1C)c1ccccc1	468	84	272	–	–	–	–	–
N#Cc1cc(C(F)(F)F)ccc1/C(=C(\c1ccc(/C=C/C(=O)O)cc1)c1ccc2[nH]nc(F)c2c1)C1CCC1	1.2	–	0.4	94	Active	75	14600	0.014
N#Cc1cc(F)ccc1/C(=C(\c1ccc(/C=C/C(=O)O)cc1)c1ccc2[nH]nc(F)c2c1)C1CCC1	1.2	–	0.3	92	–	57	760	0.021
O=C(O)/C=C/c1ccc(/C(=C(\c2ncccc2Cl)C2CCC2)c2ccc3[nH]nc(F)c3c2)cc1	1.2	–	0.3	90	–	83	900	0.032
CC/C(=C(/c1ccc(/C=C/C(=O)O)cc1)c1cc2cn[nH]c2cn1)c1ccccc1	442	88	384	–	–	–	–	–
CC/C(=C(/c1ccc(/C=C/C(=O)O)cc1)c1ccc2[nH]nc(Cl)c2c1)c1ccccc1	284	89	102	–	–	–	–	–
CC/C(=C(/c1ccc(/C=C/C(=O)O)cc1)c1cc2cn[nH]c2cc1Cl)c1ccccc1	137	87	54	–	–	–	–	–
COc1ccc(/C(=C(\c2ccc(/C=C/C(=O)O)cc2)c2ccc3[nH]nc(F)c3c2)C2CCC2)c(Cl)c1	2.4	–	0.8	93	–	90	20500	0.001
O=C(O)/C=C/c1ccc(/C(=C(\c2ncc(Cl)cc2Cl)C2CCC2)c2ccc3[nH]nc(F)c3c2)cc1	3.5	–	0.8	91	–	80	15600	0.011
N#Cc1ccc(/C(=C(\c2ccc(/C=C/C(=O)O)cc2)c2ccc3[nH]nc(F)c3c2)C2CCC2)c(Cl)c1	0.7	–	0.3	93	–	85	7800	0.006
O=C(O)/C=C/c1ccc(/C(=C(\c2ccccc2)C2CCC2)c2ccc3[nH]nc(F)c3c2)cc1	1.4	–	0.4	90	–	81	14600	0.003
O=C(O)/C=C/c1ccc(/C(=C(\c2ccccc2Cl)C2CCC2)c2ccc3[nH]nc(F)c3c2)cc1	1.1	–	0.4	90	–	82	11100	0.003
CC/C(=C(/c1ccc(/C=C/C(=O)O)cc1)c1cc2cn[nH]c2cc1F)c1ccccc1	47	96	64	–	–	–	–	–

From ChEMBL document CHEMBL3632480, “Optimization of an indazole series of selective estrogen receptor degraders: Tumor regression in a tamoxifen-resistant breast cancer xenograft” (Bioorg Med Chem Lett, 2015)
